Patent US11939334B2, “Substituted pyrimido[4,5-b][1,4]diazepines as PLK1 degradation inducers” (UPPTHERA, INC., priority 2021, dated 2024)

How the values were obtained:
PLK1 = molecular target: T1, PLK1 (Homo sapiens, UniProt P53350); assay: Luciferase assay for PLK1 in HeLa LgBit (Plk1-HiBit KI) cell line; type: cell-based; conditions: 300 nM compound, luminescence after 9 hours
T1 construct: endogenous in cells; host or cells: HeLa cells stably expressing LgBit, with CRISPR/Cas9 knock-in of HiBit at the endogenous PLK1 locus
Experimental: 2. Luciferase Assay for PLK1
(1) Preparation and Culture of HeLa LgBit (Plk1-HiBit KI) Cell Line
A HeLa cell line in which the LgBit vector was transfected and expressed stably was prepared. Then, after constructing gRNA and donor to express the HiBit amino acid sequence behind the C-terminal of the Plk1 gene, which was inherent in the cell, it was inserted into the cell together with a vector capable of expressing CRISPR/Cas9. Only the cells in which the insertion was completed and knock-in had progressed were selected, sub-cultured and used.
(2) Treatment of Compounds of the Present Invention and Method of Luciferase Assay
In the case of HeLa LgBit (Plk1-HiBit KI), the compounds were treated after being released after thymidine block, and the process was as follows. Thymidine (Sigma-Aldrich Cat. No. T9250-5G) was completely dissolved in DW and used in the experiment. For thymidine block, the products were treated with 2 mM of thymidine and then incubated for 24 hours. For release and chemical treatment, the medium was suctioned and washed with 1×PBS. TrypLE™ was added and incubated in 37° C. CO2 incubator for 5 min. Cells neutralized by adding complete media were counted through a counter. For each well of a 96-well culture plate (SPL), 3.3×10^4 cells and a total medium volume of 150 μL were seeded and incubated in a CO2 incubator.
Each cell line was incubated in a CO2 incubator for 18 hours, and Endurazine was added to each well to make up 4% of the total volume. After adding the compound of the present invention in a 96-well white plate (SPL) to a concentration of 300 nM, the wavelength of the plate reader (BMG Labtech, CLARIOstar Plus) was set to […], and then the luminescence was tracked in real time.
The results are shown in Table 2 below and FIGS. 1 and 2.
In Table 2, Activity represents the ratio of the luminescence value of each Exemplary Compound treatment group to DMSO treatment group (+++: <0.3, ++ <0.6, + <0.7).

[1] = Cell viability assay for MRC-5 cell line; conditions: human
Experimental: Cell Viability Assay for MRC-5 Cell Line
(1) Culture of MRC-5 Cell Line
The MRC-5 cell line was purchased from Korea Cell Line Bank (KCLB), Seoul, Korea. Passage of cultured cells was maintained within P15.
6×10^3 cells were seeded for each well of a 96-well plate (SPL), and the cells were cultured in total volume of 150 μL.
Each well was mixed with a medium and treated, and the volume was set to 50 μL, so that the total volume of each well was 200 μL. Then, it was cultured in 37° C.
The following compounds were used as comparative examples, and the cell viability assay was performed in the same manner as in the compounds of Examples.
(3) Cytotoxicity Experiment
After treating EZ-Cytox (DOGEN, Cat. NO. EZ-3000, Lot. No. DLS2112) 20 μL in each well of completely cultured plate, it was cultured in 37° C. CO2 incubator for 4 hours. […] The data were converted into graphs using the Prism (ver. 9) program.

H526 cell line = assay: Cell viability assay for H526 cell line; type: cell-based; conditions: Homo sapiens, NCI-H526, 120 h; H526 cells, 5 days, EZ-Cytox, 0.46-3000 nM
Experimental: 3. Cell Viability Assay for H526 Cell Line
(1) Culture of NCI-H526 Cell Line
(2) Treatment of Compounds of the Present Invention and Method of Cell Viability Assay
After treating the compound to each well to make the total volume of 200 μL, it was cultured in a CO2 incubator (Thermo Fisher Science, Cat. No. 4111) for 5 days.
The absorbance of the completely cultured sample was measured by setting the wavelength of a plate reader (BMG Labtech, CLARIOstar Plus) to […], and was measured after shaking for 3 minutes in a plate reader before measurement.
In Table 3, Activity represents IC50 value of each Exemplary Compound treatment group to H526 cell line (A: <30 nM, B: <50 nM, C: <100 nM, D: <200 nM, E: <400 nM).

T1 sequence (P53350 whole entry): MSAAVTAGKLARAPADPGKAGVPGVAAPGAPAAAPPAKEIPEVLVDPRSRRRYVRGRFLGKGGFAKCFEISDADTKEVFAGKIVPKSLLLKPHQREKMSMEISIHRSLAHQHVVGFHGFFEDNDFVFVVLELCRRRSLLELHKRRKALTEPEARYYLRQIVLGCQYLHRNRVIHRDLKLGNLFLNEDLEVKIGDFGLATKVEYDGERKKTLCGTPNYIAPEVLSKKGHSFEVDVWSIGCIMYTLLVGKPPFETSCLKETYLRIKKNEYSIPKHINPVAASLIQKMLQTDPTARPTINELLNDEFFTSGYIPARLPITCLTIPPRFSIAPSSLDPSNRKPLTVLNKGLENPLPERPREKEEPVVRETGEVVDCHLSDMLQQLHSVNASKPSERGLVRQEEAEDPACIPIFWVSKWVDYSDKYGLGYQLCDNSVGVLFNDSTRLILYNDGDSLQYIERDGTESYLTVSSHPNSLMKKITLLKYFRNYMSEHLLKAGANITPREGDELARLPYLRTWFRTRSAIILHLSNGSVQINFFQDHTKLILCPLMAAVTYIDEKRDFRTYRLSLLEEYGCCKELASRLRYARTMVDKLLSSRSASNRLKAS

Activity: ratio of the luminescence value of each Exemplary Compound treatment group to DMSO treatment group (PLK1)	SMILES	IC50 at 5 days ([1]; MRC-5 cells (normal cell line)) [nM]	IC50 (H526 cell line) [nM]	IC50 at 5 days [1] [nM]
++ (++ <0.6)	COc1cc(C(=O)NN2CC(F)(F)CC2CCN2CCN(c3ccc(C4CCC(=O)NC4=O)cc3F)CC2)ccc1Nc1ncc2c(n1)N(C(C)C)CC(F)(F)C(=O)N2C (stereo not shown) [Compound 17, 4-((7,7-difluoro-9-isopropyl-5-methyl-6-oxo-6,7,8,9-tetrahydro-5H-pyrimido[4,5-b][1,4]diazepin-2-yl)amino)-N-(2-(2-(4-(4-(2,6-dioxopiperidin-3-yl)-2-fluorophenyl)piperazin-1-yl)ethyl)-4,4-difluoropyrrolidin-1-yl)-3-methoxybenzamide]	> 10000	< 50	
+++ (+++: <0.3)	COc1cc(C(=O)NN2CCN(C3CCN(c4ccc(C5CCC(=O)NC5=O)cc4F)C3)CC2)ccc1Nc1ncc2c(n1)N(C(C)C)CC(F)(F)C(=O)N2C (stereo not shown) [Compound 38, 4-((7,7-difluoro-9-isopropyl-5-methyl-6-oxo-6,7,8,9-tetrahydro-5H-pyrimido[4,5-b][1,4]diazepin-2-yl)amino)-N-(4-(1-(4-(2,6-dioxopiperidin-3-yl)-2-fluorophenyl)pyrrolidin-3-yl)piperazin-1-yl)-3-methoxybenzamide]	> 10000	< 50	
+++ (+++: <0.3)	COc1cc(C(=O)NC2CCC(CCN3CCN(c4ccc(C5CCC(=O)NC5=O)cc4F)CC3)CC2)ccc1Nc1ncc2c(n1)N(C(C)C)CC(F)(F)C(=O)N2C (stereo not shown) [Compound 43, 4-((7,7-difluoro-9-isopropyl-5-methyl-6-oxo-6,7,8,9-tetrahydro-5H-pyrimido[4,5-b][1,4]diazepin-2-yl)amino)-N-((1r,4r)-4-(2-(4-(4-(2,6-dioxopiperidin-3-yl)-2-fluorophenyl)piperazin-1-yl)ethyl)cyclohexyl)-3-methoxybenzamide]	> 10000	< 30	
++ (++ <0.6)	COc1cc(C(=O)NC2CCN(C(=O)CCN3CCN(c4cccc(C5CCC(=O)NC5=O)c4)CC3)CC2)ccc1Nc1ncc2c(n1)N(C(C)C)CC(F)(F)C(=O)N2C (stereo not shown) [Compound 4, 4-((7,7-difluoro-9-isopropyl-5-methyl-6-oxo-6,7,8,9-tetrahydro-5H-pyrimido[4,5-b][1,4]diazepin-2-yl)amino)-N-(1-(3-(4-(3-(2,6-dioxopiperidin-3-yl)phenyl)piperazin-1-yl)propanoyl)piperidin-4-yl)-3-methoxybenzamide]	> 10000	< 30	
++ (++ <0.6)	COc1cc(C(=O)NN2CCC(CN3CCC4(CC3)CN(c3ccc(C5CCC(=O)NC5=O)cc3F)C4)CC2)ccc1Nc1ncc2c(n1)N(C(C)C)CC(F)(F)C(=O)N2C (stereo not shown) [Compound 42, 4-((7,7-difluoro-9-isopropyl-5-methyl-6-oxo-6,7,8,9-tetrahydro-5H-pyrimido[4,5-b][1,4]diazepin-2-yl)amino)-N-(4-((2-(4-(2,6-dioxopiperidin-3-yl)-2-fluorophenyl)-2,7-diazaspiro[3.5]nonan-7-yl)methyl)piperidin-1-yl)-3-methoxybenzamide]	> 10000	< 30	
++ (++ <0.6)	COc1cc(C(=O)NN2CCC(CN3CCN(c4ccc(C5CCC(=O)NC5=O)cc4F)CC3)C(F)(F)C2)ccc1Nc1ncc2c(n1)N(C(C)C)CC(F)(F)C(=O)N2C (stereo not shown) [Compound 16, 4-((7,7-difluoro-9-isopropyl-5-methyl-6-oxo-6,7,8,9-tetrahydro-5H-pyrimido[4,5-b][1,4]diazepin-2-yl)amino)-N-(4-((4-(4-(2,6-dioxopiperidin-3-yl)-2-fluorophenyl)piperazin-1-yl)methyl)-3,3-difluoropiperidin-1-yl)-3-methoxybenzamide]	> 10000	< 100	
++ (++ <0.6)	COc1cc(C(=O)NN2CCC(N3CC4(CCN(c5ccc(C6CCC(=O)NC6=O)cc5F)CC4)C3)CC2)ccc1Nc1ncc2c(n1)N(C(C)C)CC(F)(F)C(=O)N2C (stereo not shown) [Compound 40, 4-((7,7-difluoro-9-isopropyl-5-methyl-6-oxo-6,7,8,9-tetrahydro-5H-pyrimido[4,5-b][1,4]diazepin-2-yl)amino)-N-(4-(7-(4-(2,6-dioxopiperidin-3-yl)-2-fluorophenyl)-2,7-diazaspiro[3.5]nonan-2-yl)piperidin-1-yl)-3-methoxybenzamide]		< 30	
+++ (+++: <0.3)	COc1cc(C(=O)NCC2CC3(CCN(CC4CCN(c5ccc(C6CCC(=O)NC6=O)cc5F)CC4)CC3)C2)ccc1Nc1ncc2c(n1)N(C(C)C)CC(F)(F)C(=O)N2C (stereo not shown) [Compound 30, 4-((7,7-difluoro-9-isopropyl-5-methyl-6-oxo-6,7,8,9-tetrahydro-5H-pyrimido[4,5-b][1,4]diazepin-2-yl)amino)-N-((7-((1-(4-(2,6-dioxopiperidin-3-yl)-2-fluorophenyl)piperidin-4-yl)methyl)-7-azaspiro[3.5]nonan-2-yl)methyl)-3-methoxybenzamide]		< 100	

SMILES	Activity: ratio of the luminescence value of each Exemplary Compound treatment group to DMSO treatment group (PLK1)	IC50 at 5 days ([1]; MRC-5 cells (normal cell line)) [nM]	IC50 (H526 cell line) [nM]	IC50 at 5 days [1] [nM]
COc1cc(C(=O)NC2CC3(CCN(CC4CCN(c5ccc(C6CCC(=O)NC6=O)cc5F)CC4)CC3)C2)ncc1Nc1ncc2c(n1)N(C(C)C)CC(F)(F)C(=O)N2C (stereo not shown) [Compound 22, 5-((7,7-difluoro-9-isopropyl-5-methyl-6-oxo-6,7,8,9-tetrahydro-5H-pyrimido[4,5-b][1,4]diazepin-2-yl)amino)-N-(7-((1-(4-(2,6-dioxopiperidin-3-yl)-2-fluorophenyl)piperidin-4-yl)methyl)-7-azaspiro[3.5]nonan-2-yl)-4-methoxypicolinamide]	++ (++ <0.6)		< 50	> 10000
COc1cc(C(=O)NC2CC3(CCN(CC4CCN(c5ccc(C6CCC(=O)NC6=O)cc5C)CC4)CC3)C2)ccc1Nc1ncc2c(n1)N(C(C)C)CC(F)(F)C(=O)N2C (stereo not shown) [Compound 35, 4-((7,7-difluoro-9-isopropyl-5-methyl-6-oxo-6,7,8,9-tetrahydro-5H-pyrimido[4,5-b][1,4]diazepin-2-yl)amino)-N-(7-((1-(4-(2,6-dioxopiperidin-3-yl)-2-methylphenyl)piperidin-4-yl)methyl)-7-azaspiro[3.5]nonan-2-yl)-3-methoxybenzamide]	++ (++ <0.6)		< 30	> 10000
COc1cc(C(=O)NN2CC3(CCC(CN4CCN(c5ccc(C6CCC(=O)NC6=O)cc5F)CC4)CC3)C2)ccc1Nc1ncc2c(n1)N(C(C)C)CC(F)(F)C(=O)N2C (stereo not shown) [Compound 31, 4-((7,7-difluoro-9-isopropyl-5-methyl-6-oxo-6,7,8,9-tetrahydro-5H-pyrimido[4,5-b][1,4]diazepin-2-yl)amino)-N-(7-((4-(4-(2,6-dioxopiperidin-3-yl)-2-fluorophenyl)piperazin-1-yl)methyl)-2-azaspiro[3.5]nonan-2-yl)-3-methoxybenzamide]	+++ (+++: <0.3)		< 30	> 10000
COc1cc(C(=O)NC2CC23CCN(CC2CCN(c4ccc(C5CCC(=O)NC5=O)cc4F)CC2)CC3)ccc1Nc1ncc2c(n1)N(C(C)C)CC(F)(F)C(=O)N2C (stereo not shown) [Compound 46, 4-((7,7-difluoro-9-isopropyl-5-methyl-6-oxo-6,7,8,9-tetrahydro-5H-pyrimido[4,5-b][1,4]diazepin-2-yl)amino)-N-(6-((1-(4-(2,6-dioxopiperidin-3-yl)-2-fluorophenyl)piperidin-4-yl)methyl)-6-azaspiro[2.5]octan-1-yl)-3-methoxybenzamide]	+++ (+++: <0.3)		< 100	> 10000
